Results taken from US20240294553A1, “SIZE-SELECTIVE ACYCLIC CHELATORS AND THEIR USE FOR THE RECOVERY OF RARE EARTH ELEMENTS” (UT-Battelle, LLC, priority 2023, published 2024).

Key:
[1] = Protonation constants and lanthanide complex stabilities by potentiometric titration; type: binding
Description: Protonation constants and lanthanide (Ln) stability constants of acyclopa and acyclopa-XL were obtained by potentiometric titration using either a Metrohm Titrando 888 titrator or an 855 Robotic Titrosampler connected to an 805 Dosimat. Both titration systems were equipped with Ross Orion combination electrodes (8103BN, ThermoFisher Scientific), Metrohm 806 exchange units with automatic burets (10 mL), and Tiamo 2.5 software. The titration vessel was fitted with a removable glass cell and thermostated at 25° C. using an Isotemp 500LC recirculating chiller (Fisher Scientific). CO2 was excluded from the titration vessel using a small positive pressure of argon bubbled through 30 wt % KOH. […]
Before every ligand or ligand-metal titration, the electrode was calibrated in terms of the hydrogen-ion concentration by titrating a solution of standardized HCl (0.005 M) containing supporting electrolyte (KCl=0.095 M) with standardized KOH. Data within the pH ranges of 2.3-3.2 and 10.8-11.3 were analyzed using the program Glee (version 3.0.21) to obtain the standard electrode potential (E0) and slope factor. […] Their exact concentrations were determined potentiometrically from the two sharp endpoints of their titration curves using the formula ((VEP2−VEP1)/npKa)*[KOH]. […]

[2] = Recovery and reuse of acyclopa in multiple leach cycles (oxalic acid stripping)
Description: The release of REEs from acyclopa and their subsequent precipitation as REE2(C2O4)3 was investigated as a function of pH and oxalic acid equivalents. Pregnant leach solutions were prepared at pH 8.2 using acyclopa and La(OH)3, and varying equivalents of H2C2O4 were added. The pH of the samples was reduced stepwise to pH 6, 5, 4, and 3 using HCl. The concentration of La remaining in the supernatant at each pH was analyzed by ICP-MS. The release of REEs from acyclopa and their subsequent precipitation as REE2(C2O4)3 as a function of pH and oxalic acid equivalents is shown in FIG. 12.
Next, the ability to reuse acyclopa in multiple leach cycles was investigated. Leaching samples were prepared as described above at pH 8.2 using acyclopa and La(OH)3. […] To this solution, 2 equivalents of oxalic acid were added, and the pH was adjusted to 3 using HCl. The resulting precipitate was removed. The pH of the filtrate was re-adjusted to 8.2 using NaOH, and another portion of La(OH)3 was added. The suspension was stirred for 24 h, and the percent La dissolved was measured by ICP-MS. In subsequent precipitation cycles, only 1 equivalent of oxalic acid was added. Using this method, ˜75% dissolution was maintained over 4 dissolution/precipitation cycles. The results are shown graphically in FIG. 13.

[3] = Leaching of rare-earth elements from mixed rare-earth hydroxide; conditions: RT, 26 h, 20 mM lixiviant; for selectivity of leaching of REEs (percent dissolution): pH 8.2, CHES/CAPS buffer, 15 mg/mL (La,Nd,Eu,Dy,Y)OH3, FIG. 11
Description: A solution of CHES (400 mM) and CAPS (400 mM) was prepared in H2O. The pH was left unadjusted. Buffered solutions of acyclopa at pH 8.2, 9, and 10 were prepared by adding an aliquot of acyclopa (6.65 mL of a 75.17 mM aqueous stock solution) to a volumetric flask (25 mL) containing CHES/CAPS (12.5 mL). The solution was diluted with concentrated NaOH and H2O to the desired final pH. The final ligand concentration was 20 mM and the final CHES and CAPS concentrations were 200 mM each. Buffered solutions of EDTA were prepared in an analogous manner. For control samples without chelator, CHES/CAPS buffer (200 mM each) was prepared separately for each pH.
Leaching experiments were setup as follows: Various quantities (5±0.3 mg, 10±0.5 mg, and 15±0.5 mg) of (La,Nd,Eu,Dy,Y)OH3 were massed into 2 mL flat-bottomed screw-cap polypropylene tubes. An aliquot of lixiviant solution or buffer only (1 mL) was added to each tube. The samples were rotated end-over-end at 35 RPM and ambient temperature (71±1° F.). At pre-determined time points, the suspensions were centrifuged, and an aliquot of the supernatant (10 μL) was carefully removed and placed into 2% HNO3 (4.990 mL) for ICP-MS analysis. The samples were shaken to break up the pellets and returned to the rotating wheels. At the final time point, the suspensions were filtered via a 96-well filter plate (Pall AcroPrep Advance 0.2 μm Supor Short Tip) and sampled for ICP-MS. The final pH of representative samples was recorded. […] Also, the separation factor was calculated according to the equation below. The leaching of REEs (expressed as percent dissolution) from (La,Nd,Eu,Dy,Y)OH3 by acyclopa as a function of pH (pH 8.2, pH 9, or pH 10) using a CHES/CAPS buffer, RT, 26 h, 20 mM lixiviant, and 5 mg/mL (La,Nd,Eu,Dy,Y)OH3 are shown in FIG. 9. The leaching of REEs (expressed as concentration) from (La,Nd,Eu,Dy,Y)OH3 by acyclopa as a function of solid loading at a pH of 9 using a CHES/CAPS buffer, RT, 26 h, 20 mM lixiviant, and 5-15 mg/mL (La,Nd,Eu,Dy,Y)OH3 are shown in FIG. 10. […]

O=C(O)c1cccc(CN(CCO)CCOCCOCCN(CCO)Cc2cccc(C(=O)O)n2)n1 [acyclopa, 6,6′-(2,11-bis(2-hydroxyethyl)-5,8-dioxa-2,11-diazadodecane-1,12-diyl)dipicolinic acid]
Δ log KLa-Lu (difference of stability constants log KML) ([1]; 25° C., ionic strength 0.1 M KCl, La^3+ versus Lu^3+): 4.27
affinity for rare-earth elements (in words) ([1]; log KML versus ionic radius, FIG. 6): high affinity for large, light REEs and low affinity for small, heavy REEs
percent La dissolved (dissolution of La(OH)3) ([2]; pH 8.2, 24 h, maintained over 4 dissolution/precipitation cycles, ICP-MS, FIG. 13): ~75%
initial dissolution of La(OH)3 ([2]; pH 8.2, first leach): nearly all of the La(OH)3 was dissolved initially
selectivity of leaching of REEs (percent dissolution) [3]: preferentially leaches large over small REEs
effect of increasing solid loading on La/Y separation ([3]; pH 9, CHES/CAPS buffer, 5-15 mg/mL (La,Nd,Eu,Dy,Y)OH3, FIG. 10): significantly increases separative leaching of La from Y

O=C(O)CN(CCN(CC(=O)O)CC(=O)O)CC(=O)O [EDTA, ethylenediaminetetraacetic acid, reference compound]
selectivity of leaching of REEs (percent dissolution) [3]: fails to demonstrate any selectivity
